Results reported in PubChem BioAssay (NCI).
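Results reflect a 48-hour exposure of cells in 96-well plates to compound at five concentrations. The concentration for 50% growth inhibition is given as GI50. TGI is the concentration that stops growth completely.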

Tests used:
Assay in all cases: inhibition of tumour cell growth, NCI panel, 48 h
CCRF-CEM leukemia = system: CCRF-CEM leukemia
HS 578T breast = system: HS 578T breast
NCI-H522 lung = system: NCI-H522 lung
MDA-MB-231 breast = system: MDA-MB-231 breast
T-47D breast = system: T-47D breast
MDA-MB-435 = system: MDA-MB-435
DMS 114 small cell lung = system: DMS 114 small cell lung
DLD-1 colon = system: DLD-1 colon
KM20L2 colon = system: KM20L2 colon
M19-MEL melanoma = system: M19-MEL melanoma
SNB-78 CNS = system: SNB-78 CNS
DMS 273 small cell lung = system: DMS 273 small cell lung
LXFL 529 NSCLC = system: LXFL 529 NSCLC
HOP-18 NSCLC = system: HOP-18 NSCLC
XF 498 CNS = system: XF 498 CNS

SMILES	TGI (CCRF-CEM leukemia)	TGI (HS 578T breast)	TGI (NCI-H522 lung)	TGI (MDA-MB-231 breast)	TGI (T-47D breast)	TGI (MDA-MB-435)	further results
N#CCCCC[N+]12CN3CN(CN(C3)C1)C2	> 100 µM	> 100 µM	> 100 µM	> 100 µM	> 100 µM	> 100 µM	–
CC(C)=CCNc1ncnc2nc[nH]c12	> 100 µM	> 100 µM	> 100 µM	> 100 µM	> 100 µM	> 100 µM	–
Nc1c2c(=O)[nH]c(=O)c2c(N)c2c(=O)c3ccccc3c(=O)c12	> 26.7 µM	> 25.9 µM	13.5 µM	> 29.5 µM	> 49.6 µM	2.46 µM	–
O=C1c2ccccc2C(=O)c2c(Nc3ccc4c5c(cccc35)C(=O)c3ccccc3-4)cccc21	–	> 100 µM	> 100 µM	> 100 µM	> 100 µM	> 100 µM	–
N#CN=C(N)NC(=O)/C=C/C=C/c1ccc(Cl)cc1	> 100 µM	–	> 100 µM	–	–	–	TGI (DMS 114 small cell lung): > 100 µM; TGI (DLD-1 colon): > 100 µM; TGI (KM20L2 colon): > 100 µM; TGI (M19-MEL melanoma): > 100 µM; TGI (SNB-78 CNS): > 100 µM; TGI (DMS 273 small cell lung): > 100 µM; TGI (LXFL 529 NSCLC): > 100 µM; TGI (HOP-18 NSCLC): > 100 µM
CSc1nc(Cl)c(Br)c(Sc2nc(N)nc3nc[nH]c23)n1	9.38 µM	–	3.45 µM	–	–	–	TGI (DMS 114 small cell lung): 18.9 µM; TGI (DLD-1 colon): 24.4 µM; TGI (XF 498 CNS): 30.1 µM; TGI (KM20L2 colon): 18.8 µM; TGI (M19-MEL melanoma): 23.4 µM; TGI (DMS 273 small cell lung): 15.6 µM; TGI (LXFL 529 NSCLC): 18.7 µM
O=C(CSc1nc2ccccc2s1)c1sc2sc3ccccc3[n+]2c1[O-]	–	> 100 µM	> 100 µM	> 100 µM	> 100 µM	> 100 µM	–
COc1ccc(C(=O)Cn2c(C(=O)/C=C/c3ccco3)nc3ccccc32)cc1	> 100 µM	63.8 µM	–	> 100 µM	> 100 µM	> 100 µM	–
CN(C)c1ccc(/C=c2/c3ccccc3n3nc4ccccc4c23)cc1	76.5 µM	> 100 µM	31.9 µM	> 100 µM	55.4 µM	> 100 µM	–
O=c1ccc2nc(-c3ccccc3)nn(-c3ccccn3)c-2c1	–	98.8 µM	2.97 µM	29.5 µM	6.79 µM	33.9 µM	GI50 (HS 578T breast): 23.4 µM; GI50 (NCI-H522 lung): 1.51 µM; GI50 (MDA-MB-231 breast): 9.87 µM; GI50 (T-47D breast): 2.03 µM; GI50 (MDA-MB-435): 15.4 µM
CC(=O)OC(C)C1C2=C(C(=O)CC1(C)O)C(=O)c1c(ccc(-c3ccc4c(c3O)C(=O)C3=C(C4=O)C(C(C)OC(C)=O)C(C)(O)CC3=O)c1O)C2=O (stereo unspecified)	> 100 µM	5 µM	4.25 µM	4.98 µM	4.61 µM	4.19 µM	TGI (DMS 114 small cell lung): 1.24 µM; TGI (DLD-1 colon): 2.43 µM; TGI (KM20L2 colon): 4.59 µM; TGI (M19-MEL melanoma): 2.7 µM; TGI (SNB-78 CNS): 9.63 µM; TGI (DMS 273 small cell lung): 3.05 µM; TGI (LXFL 529 NSCLC): 1.51 µM; TGI (HOP-18 NSCLC): 1.74 µM
COc1ccc(C2CC(c3ccccc3)=Nc3c(-c4ccccc4)nnn32)cc1 (stereo unspecified)	> 100 µM	> 100 µM	69.3 µM	> 100 µM	59.6 µM	> 100 µM	–
O=C1CC(O)c2c(Br)sc(Br)c21 (stereo unspecified)	–	55.9 µM	29.4 µM	29.9 µM	30.5 µM	18.5 µM	–
COc1ccc(C[C@H](N)C(=O)NC2C(CO)OC(n3cnc4c(N(C)C)ncnc43)C2O)cc1 (stereo partly specified)	0.845 µM	–	–	–	–	–	TGI (DMS 114 small cell lung): 0.604 µM; TGI (XF 498 CNS): 0.166 µM; TGI (M19-MEL melanoma): 1.54 µM; TGI (SNB-78 CNS): 0.758 µM; TGI (DMS 273 small cell lung): 1.51 µM; TGI (LXFL 529 NSCLC): 0.305 µM
CC(=O)Nc1ccc(NC(=O)c2c(Cl)c(Cl)c(Cl)c(Cl)c2-c2nc3ccccc3[nH]2)cc1	> 100 µM	> 100 µM	> 100 µM	–	> 100 µM	> 100 µM	–
Nc1nc(N)c2c(n1)NC(=O)c1c(c3ccccc3n1Cc1ccc(Cl)cc1)C2	42.8 µM	> 100 µM	–	–	43.9 µM	91.1 µM	–
CC(C)c1cc(CN(C)C)c(O)c(C(C)(C)C)c1	30 µM	> 100 µM	38.1 µM	> 100 µM	58.1 µM	> 100 µM	–
C=CC[N+]12CN3CN(CN(C3)C1)C2	30.3 µM	> 100 µM	34.9 µM	91.3 µM	76.5 µM	37.4 µM	–
N=C(c1ccc2ccccc2c1)c1ccccc1Cc1ccccc1	82.8 µM	–	–	> 100 µM	55.7 µM	80.7 µM	–
CC(C)(C)c1cc(C2NCCO2)cc(C(C)(C)C)c1O (stereo unspecified)	> 100 µM	> 100 µM	> 100 µM	54.8 µM	27.6 µM	> 100 µM	–
NC(=O)C(N)=O	> 100 µM	–	> 100 µM	–	–	–	TGI (DMS 114 small cell lung): > 100 µM; TGI (DLD-1 colon): > 100 µM; TGI (XF 498 CNS): > 100 µM; TGI (KM20L2 colon): > 100 µM; TGI (M19-MEL melanoma): > 100 µM; TGI (SNB-78 CNS): > 100 µM; TGI (DMS 273 small cell lung): > 100 µM; TGI (LXFL 529 NSCLC): > 100 µM; TGI (HOP-18 NSCLC): > 100 µM
CCOC(=O)C12CCC(=O)C=C1[C@@H](C)C(=O)CC2 (stereo partly specified)	–	–	–	–	–	–	TGI (DMS 114 small cell lung): > 100 µM; TGI (DLD-1 colon): > 100 µM; TGI (XF 498 CNS): > 100 µM; TGI (KM20L2 colon): > 100 µM; TGI (M19-MEL melanoma): > 100 µM; TGI (DMS 273 small cell lung): > 100 µM; TGI (LXFL 529 NSCLC): > 100 µM
COc1ccc(-c2c(=O)[nH]n3c(=S)nc(-c4ccccc4)[nH]c23)cc1OC	31.1 µM	> 100 µM	37.9 µM	97.8 µM	42.6 µM	39.2 µM	–
COc1cc(NC(C)=O)ccc1C(=O)N/N=C/c1ccc(Cl)cc1Cl	> 100 µM	> 100 µM	> 100 µM	–	70.8 µM	56.4 µM	–
CC(C)(C)N1C(C(=O)c2ccccc2)C1c1ccccc1 (stereo unspecified)	> 100 µM	–	> 100 µM	–	–	–	TGI (DLD-1 colon): > 100 µM; TGI (M19-MEL melanoma): > 100 µM; TGI (SNB-78 CNS): > 100 µM; TGI (DMS 273 small cell lung): > 100 µM; TGI (LXFL 529 NSCLC): > 100 µM
C#CCOc1c(C(=O)OCC)c(=O)n(C)c2ccccc12	> 100 µM	–	> 100 µM	–	–	–	TGI (DMS 114 small cell lung): > 100 µM; TGI (DLD-1 colon): > 100 µM; TGI (XF 498 CNS): > 100 µM; TGI (KM20L2 colon): > 100 µM; TGI (M19-MEL melanoma): > 100 µM; TGI (SNB-78 CNS): > 100 µM; TGI (LXFL 529 NSCLC): > 100 µM; TGI (HOP-18 NSCLC): > 100 µM
O=C(CNc1cccc([N+](=O)[O-])c1)Nn1c(-c2ccccc2)nc2ccccc2c1=O	1.15 µM	3.6 µM	–	2.9 µM	4.54 µM	–	–
